Like-named read-outs stand apart in the source and are kept apart here.
Key:
[1] = Tissue bio-distribution and tissue pharmacokinetics of DMA; assay type: in vivo, mouse; details: for half-life / Tmax / concentration at 1 h / concentration at 2 h / concentration at 4 h / concentration at 6 h / concentration at 16 h / concentration at 24 h / Cmax: Balb/c, mouse; for half-life / Tmax / Cmax: 100 mg/kg oral dose
Protocol: Tissue samples were collected from the same mice from which blood samples were collected in both doses of DMA. Lung, liver, kidney, intestine, heart, spleen, brain were dissected and rinsed with phosphate buffer saline (PBS) and dried on blotting paper. 100 mg of tissue sample was homogenized for 20 s in chilled acetronitrile and water and further 700 μl chilled acetronitrile was added. The sample was centrifuged at 14000 rpm for 10 min and clear supernatant was collected for analysis on HPLC-MS/MS system.
A standard DMA calibration from 1-1000 ng/ml with internal standard (20 ng/ml) was quantified. Sample analysis was performed on positive ionization mode LC-MS/MS with multiple reactions monitoring (MRM, m/z Q1/Q3) of DMA (m/z 235.1/412.0, retention time (RT) 5.3 min) and internal standard (m/z 227.1/396.0, RT 6.5 min) (Agilent 6410 series). A gradient method was employed to analyze the plasma samples using mobile phase A (0.1% formic acid in water) and mobile phase B (methanol). The B % was set as 30 (0 min), 90 (10-14 min), 30 (14-24 min) with flow rate of 0.3 ml/min. An injection volume of 10 μl was used for analysis.
Peak tissue concentration (Cmax) of DMA and time to reach the Cmax (tmax) were read directly from the raw data by visual examination of mean tissue concentration-time profile. The tissue concentration-time data following oral dose were subjected to one-, two- and three-compartmental models using WinNonlin program (version 6.3; Certara Inc, Missouri, USA) to calculate the pharmacokinetic parameters. The pharmacokinetic models were compared according to maximal correlation between observed and predicted concentration, minimal sum of squared residuals, Akaike Information Criterion (AIC) and Schwarz Bayesian Criterion (SBC). However, the tissue concentration-time data following intravenous administration were subjected to non-compartmental approach.

[2] = test system: Akt/NFκB pathway in Balb/c mice intestine tissue; experiment: Immunoblot analysis and Akt kinase assay in intestine tissue; assay type: in vivo, mouse
Protocol: HEK293, MRC5 and A549 cells were treated as indicated earlier. The cell pellet was resuspended in RIPA buffer and allowed to swell on ice for 30 min. Balb/c intestine tissue and tumor tissues were homogenized in RIPA buffer. Protein concentration was determined using Bradford's Assay (Bangalore Genei). Western blot was performed using standard protocols with primary antibodies against Akt, pAkt (Ser-473), […], mTOR, p70, Bad, PTEN, IKKα/β, p IKKα/β, p53, Bcl2, GAPDH, and NFκB (p65) (Cell Signalling) and horseradish peroxidase-conjugated mouse or rabbit secondary antibody (Abcam). Signals were detected using enhanced chemiluminescence (ECL system, Pierce) on X-ray film.
Akt kinase activity was determined using Akt Kinase Assay Kit (Nonradioactive) (Cell Signaling Technology, Cat. #9840) following the manufacturer's instructions.

[3] = kidney, Oral 100 mg/kg, read-out: Tissue DMA concentration, Kidney
[4] = liver, iv, i.v. 50 mg/kg, read-out: Tissue DMA concentration, Liver
[5] = liver, Oral 100 mg/kg, read-out: Tissue DMA concentration, Liver
[6] = lung, iv, i.v. 50 mg/kg, read-out: Tissue DMA concentration, Lung
[7] = lung, Oral 100 mg/kg, read-out: Tissue DMA concentration, Lung
[8] = spleen, iv, i.v. 50 mg/kg, read-out: Tissue DMA concentration, Spleen
[9] = spleen, Oral 100 mg/kg, read-out: Tissue DMA concentration, Spleen

COc1ccc(-c2nc3cc(-c4nc5cc(N6CCN(C)CC6)ccc5[nH]4)ccc3[nH]2)cc1OC [DMA, 5-(4-methylpiperazin-1-yl)-2-[2′-(3,4-dimethoxyphenyl)-5′-benzimidazolyl]benzimidazole]
half-life ([1]; kidney, read-out: Half life, Kidney (converted)): 2.5 h
Tmax ([1]; kidney, read-out: Tmax, Kidney): 4 h
concentration at 1 h ([1]; kidney, Oral 100 mg/kg, 1 h, read-out: Tissue DMA concentration, Kidney): 342 ng/g
concentration at 2 h [1, 3]: 1020 ng/g
concentration at 4 h ([1]; kidney, Oral 100 mg/kg, 4 h, read-out: Tissue DMA concentration, Kidney): 1530 ng/g
concentration at 6 h ([1]; kidney, Oral 100 mg/kg, 6 h, read-out: Tissue DMA concentration, Kidney): 643 ng/g
concentration at 16 h [1, 3]: 193 ng/g
concentration at 1 h ([1]; liver, intravenous, 50 mg/kg i.v., read-out: Concentration achieved in liver): 41600 ng/g
concentration at 1 h ([1]; liver, iv, i.v. 50 mg/kg, 1 h, read-out: Tissue DMA concentration, Liver): 41600 ng/g
concentration at 2 h [1, 4]: 2000 ng/g
concentration at 4 h ([1]; liver, iv, i.v. 50 mg/kg, 4 h, read-out: Tissue DMA concentration, Liver): 30100 ng/g
concentration at 6 h ([1]; liver, iv, i.v. 50 mg/kg, 6 h, read-out: Tissue DMA concentration, Liver): 40100 ng/g
concentration at 16 h [1, 4]: 22200 ng/g
half-life ([1]; liver, read-out: Half life, Liver (converted)): 4 h
Tmax ([1]; liver, read-out: Tmax, Liver): 4 h
concentration at 1 h ([1]; liver, Oral 100 mg/kg, 1 h, read-out: Tissue DMA concentration, Liver): 161 ng/g
concentration at 2 h [1, 5]: 415 ng/g
concentration at 4 h ([1]; liver, Oral 100 mg/kg, 4 h, read-out: Tissue DMA concentration, Liver): 2230 ng/g
concentration at 6 h ([1]; liver, Oral 100 mg/kg, 6 h, read-out: Tissue DMA concentration, Liver): 735 ng/g
concentration at 16 h [1, 5]: 691 ng/g
concentration at 24 h [1, 5]: 192 ng/g
concentration at 1 h ([1]; lung, intravenous, 50 mg/kg i.v., read-out: Concentration achieved in lung): 109000 ng/g
concentration at 1 h ([1]; lung, iv, i.v. 50 mg/kg, 1 h, read-out: Tissue DMA concentration, Lung): 109000 ng/g
concentration at 2 h [1, 6]: 2340 ng/g
concentration at 4 h ([1]; lung, iv, i.v. 50 mg/kg, 4 h, read-out: Tissue DMA concentration, Lung): 1770 ng/g
concentration at 6 h ([1]; lung, iv, i.v. 50 mg/kg, 6 h, read-out: Tissue DMA concentration, Lung): 1340 ng/g
concentration at 16 h [1, 6]: 993 ng/g
concentration at 24 h [1, 6]: 730 ng/g
concentration at 4 h ([1]; lung, 100 mg/kg oral, at 4 h, read-out: Concentration reached in lung): 1000 ng/g
concentration at 1 h ([1]; lung, Oral 100 mg/kg, 1 h, read-out: Tissue DMA concentration, Lung): 211 ng/g
concentration at 2 h [1, 7]: 436 ng/g
concentration at 4 h ([1]; lung, Oral 100 mg/kg, 4 h, read-out: Tissue DMA concentration, Lung): 1000 ng/g
concentration at 6 h ([1]; lung, Oral 100 mg/kg, 6 h, read-out: Tissue DMA concentration, Lung): 538 ng/g
concentration at 16 h [1, 7]: 188 ng/g
Cmax ([1]; small intestine, read-out: Cmax, Small Intestine): 106000 ng/g
half-life ([1]; small intestine, read-out: Half life, Small Intestine (converted)): 1.9 h
Tmax ([1]; small intestine, read-out: Tmax, Small Intestine): 2 h
concentration at 6 h ([1]; spleen, intravenous, 50 mg/kg i.v., read-out: Concentration achieved in spleen): 12100 ng/g
concentration at 1 h ([1]; spleen, iv, i.v. 50 mg/kg, 1 h, read-out: Tissue DMA concentration, Spleen): 6970 ng/g
concentration at 2 h [1, 8]: 6450 ng/g
concentration at 4 h ([1]; spleen, iv, i.v. 50 mg/kg, 4 h, read-out: Tissue DMA concentration, Spleen): 2090 ng/g
concentration at 6 h ([1]; spleen, iv, i.v. 50 mg/kg, 6 h, read-out: Tissue DMA concentration, Spleen): 12100 ng/g
concentration at 16 h [1, 8]: 9600 ng/g
concentration at 1 h ([1]; spleen, 50 mg/kg intravenous, read-out: C1 hr, Spleen): 6970 ng/g
Cmax ([1]; spleen, read-out: Cmax, Spleen): 1310 ng/g
half-life ([1]; spleen, read-out: Half life, Spleen (converted)): 4.2 h
Tmax ([1]; spleen, read-out: Tmax, Spleen): 2 h
concentration at 1 h ([1]; spleen, Oral 100 mg/kg, 1 h, read-out: Tissue DMA concentration, Spleen): 401 ng/g
concentration at 2 h [1, 9]: 1310 ng/g
concentration at 4 h ([1]; spleen, Oral 100 mg/kg, 4 h, read-out: Tissue DMA concentration, Spleen): 681 ng/g
concentration at 6 h ([1]; spleen, Oral 100 mg/kg, 6 h, read-out: Tissue DMA concentration, Spleen): 558 ng/g
concentration at 16 h [1, 9]: 254 ng/g
Tissue DMA concentration, Intestine ([1]; i.v. 50 mg/kg, 1 h): 1260000 ng/g of tissue
Tissue accumulation ([1]; oral and i.v.): preferential accumulation in small intestine
Phosphorylated Akt, GSK3β and IKKα/β ([2]; DMA treated intestine tissue prior to irradiation): higher level
Kinase activity of Akt ([2]; DMA+Radiation vs control and radiation, intestine): higher kinase activity
NFκB p65 expression ([2]; DMA+Radiation, intestine): higher expression
